Measured values published in US11091501B2, “Heterocyclic compounds as RSV inhibitors” (Enanta Pharmaceuticals, Inc., priority 2017, dated 2021).
pEC50: −log10 of the molar value.

system: Human RSV-A (“Long” strain); assay: RSV in vitro cytoprotection assay (CPE, ATPlite) in HEp-2 cells; assay type: cell-based; details: human respiratory syncytial virus, 96 h; HEp-2 cells, 4-day incubation, ATPlite readout; read-out: Human RSV-A (“Long” strain) EC50
How it was run: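 HEp-2 cells (8,000/well) given 2-fold serial compound dilutions in duplicate, then infected with sucrose-stabilised RSV-A Long stock. After 4 days, cell viability read by ATPlite luminescence, with a parallel uninfected plate for cytotoxicity. EC50 binned A<0.01 μM, B 0.01-0.05 μM, C>0.05 μM.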

SMILES	pEC50
Cc1cnc(N2CC3(CCOCC3)C2)c(C(=O)Nc2ccc(C(=O)N3CCc4cc(NC(=O)c5ccccc5)sc4-c4ccccc43)cc2)c1 [Example 284]	> 8.00
Cc1cnc(N2CC3(CCOCC3)C2)c(C(=O)Nc2ccc(C(=O)N3CCc4cc(NC(=O)c5ccccc5F)sc4-c4ccccc43)cc2)c1 [Example 285]	> 8.00
Cc1cnc(N2CC3(CCOCC3)C2)c(C(=O)Nc2ccc(C(=O)N3CCc4cc(NC(=O)c5c(C)cccc5C)sc4-c4ccccc43)cc2)c1 [Example 286]	7.30 to 8.00
Cc1cnc(N2CC3(CCOCC3)C2)c(C(=O)Nc2ccc(C(=O)N3CCc4cc(NC(=O)c5c(F)cccc5C(F)(F)F)sc4-c4ccccc43)cc2)c1 [Example 287]	7.30 to 8.00
Cc1cnc(N2CC3(CCOCC3)C2)c(C(=O)Nc2ccc(C(=O)N3CCc4cc(NS(=O)(=O)c5c(F)cccc5F)sc4-c4ccccc43)cc2)c1 [Example 288]	< 7.30
Cc1cnc(N2CC3(CCOCC3)C2)c(C(=O)Nc2ccc(C(=O)N3CCc4cc(NS(=O)(=O)c5c(C)cccc5F)sc4-c4ccccc43)cc2)c1 [Example 289]	< 7.30
Cc1cnc(N2CC3(CCOCC3)C2)c(C(=O)Nc2ccc(C(=O)N3CCc4cc(NS(=O)(=O)c5ccccc5F)sc4-c4ccccc43)cc2)c1 [Example 290]	< 7.30
Cc1cnc(N2CC3(CCOCC3)C2)c(C(=O)Nc2ccc(C(=O)N3CCc4cc(NS(=O)(=O)c5c(F)cccc5Cl)sc4-c4ccccc43)cc2)c1 [Example 291]	< 7.30
Cc1cnc(N2CC3(CCOCC3)C2)c(C(=O)Nc2ccc(C(=O)N3CCc4cc(NC(=O)OC5CCC5)sc4-c4ccccc43)cc2)c1 [Example 292]	> 8.00
Cc1cnc(N2CC3(CCOCC3)C2)c(C(=O)Nc2ccc(C(=O)N3CCc4cc(NC(=O)Oc5ccccc5)sc4-c4ccccc43)cc2)c1 [Example 296]	7.30 to 8.00

Next, values leading:

pEC50	SMILES
7.30 to 8.00	Cc1cnc(N2CC3(CCOCC3)C2)c(C(=O)Nc2ccc(C(=O)N3CCc4cc(NC(=O)OC5CCCC5)sc4-c4ccccc43)cc2)c1 [Example 293]
7.30 to 8.00	Cc1cnc(N2CC3(CCOCC3)C2)c(C(=O)Nc2ccc(C(=O)N3CCc4cc(NC(=O)OC5CCCCC5)sc4-c4ccccc43)cc2)c1 [Example 294]
> 8.00	Cc1cnc(N2CC3(CCOCC3)C2)c(C(=O)Nc2ccc(C(=O)N3CCc4cc(NC(=O)OCC(F)(F)F)sc4-c4ccccc43)cc2)c1 [Example 295]
> 8.00	Cc1cnc(N2CC3(CCOCC3)C2)c(C(=O)Nc2ccc(C(=O)N3CCc4cc(NC(=O)OC(C)C)sc4-c4ccccc43)cc2)c1 [Example 297]
7.30 to 8.00	Cc1ccc(C(=O)Nc2ccc(C(=O)N3CCc4cc(NC(=O)OC5CCC5)sc4-c4ccccc43)cc2)c(N2CC3(CCOCC3)C2)n1 [Example 298]
7.30 to 8.00	Cc1ccc(C(=O)Nc2ccc(C(=O)N3CCc4cc(NC(=O)OC5CCCC5)sc4-c4ccccc43)cc2)c(N2CC3(CCOCC3)C2)n1 [Example 299]
< 7.30	Cc1ccc(C(=O)Nc2ccc(C(=O)N3CCc4cc(NC(=O)OC5CCCCC5)sc4-c4ccccc43)cc2)c(N2CC3(CCOCC3)C2)n1 [Example 300]
7.30 to 8.00	Cc1ccc(C(=O)Nc2ccc(C(=O)N3CCc4cc(NC(=O)OCC(F)(F)F)sc4-c4ccccc43)cc2)c(N2CC3(CCOCC3)C2)n1 [Example 301]
7.30 to 8.00	Cc1ccc(C(=O)Nc2ccc(C(=O)N3CCc4c(sc(NC(=O)c5c(F)cccc5F)c4F)-c4ccccc43)cc2)c(N2CC3(CCOCC3)C2)n1 [Example 303]
> 8.00	Cc1cnc(N2CC3(CCOCC3)C2)c(C(=O)Nc2ccc(C(=O)N3CCc4c(sc(NC(=O)c5c(F)cccc5F)c4F)-c4ccccc43)cc2)c1 [Example 304]
> 8.00	Cc1cnc(N2CC3(CCOCC3)C2)c(C(=O)Nc2ccc(C(=O)N3CCc4c(sc(NC(=O)c5c(F)cccc5Cl)c4F)-c4ccccc43)cc2)c1 [Example 305]
> 8.00	Cc1cnc(N2CC3(CCOCC3)C2)c(C(=O)Nc2ccc(C(=O)N3CCc4c(sc(NC(=O)c5c(F)cncc5F)c4F)-c4ccccc43)cc2)c1 [Example 306]
> 8.00	Cc1cnc(N2CC3(CCOCC3)C2)c(C(=O)Nc2ccc(C(=O)N3CCc4c(sc(NC(=O)c5ccccc5F)c4F)-c4ccccc43)cc2)c1 [Example 307]
7.30 to 8.00	Cc1ccc(C(=O)Nc2ccc(C(=O)N3CCc4c(sc(NC(=O)c5c(C)cccc5F)c4F)-c4ccccc43)cc2)c(N2CC3(CCOCC3)C2)n1 [Example 308]
7.30 to 8.00	Cc1ccc(C(=O)Nc2ccc(C(=O)N3CCc4c(sc(NC(=O)c5c(F)cccc5Cl)c4F)-c4ccccc43)cc2)c(N2CC3(CCOCC3)C2)n1 [Example 309]
7.30 to 8.00	Cc1ccc(C(=O)Nc2ccc(C(=O)N3CCc4c(sc(NC(=O)c5c(Cl)cccc5Cl)c4F)-c4ccccc43)cc2)c(N2CC3(CCOCC3)C2)n1 [Example 310]
7.30 to 8.00	Cc1ccc(C(=O)Nc2ccc(C(=O)N3CCc4c(sc(NC(=O)c5ccccc5F)c4F)-c4ccccc43)cc2)c(N2CC3(CCOCC3)C2)n1 [Example 311]

same assay, conditions: human respiratory syncytial virus, HEp-2, 96 h, read-out: Human RSV-A (“Long” strain) EC50

SMILES	pEC50
Cc1ccc(C(=O)Nc2ccc(C(=O)N3CCc4cc(NC(=O)Oc5ccccc5)sc4-c4ccccc43)cc2)c(N2CC3(CCOCC3)C2)n1 [Example 302]	< 7.30

same assay, conditions: human respiratory syncytial virus, HEp-2; control compound of the RSV assay; read-out: EC50

SMILES	pEC50
O=C(Nc1ccccc1F)N[C@H]1N=C(c2ccccc2)c2ccccc2NC1=O [RSV-604, reference compound]	~5.62
